According to patent publication US20260124222A1, “ISOTHIAZOLYLCARBOXAMIDE COMPOUNDS AND THEIR USE IN THERAPY” (HOTSPOT THERAPEUTICS, INC., priority 2022, published 2026):

The compounds below were run against T1, Avi-tagged FL MALT-1 (Homo sapiens, UniProt Q9UDY8) (assay: MALT-1 Fluorogenic Peptide Cleavage Assay (MALT1 inhibition assay)). Conditions: Ac-LRSR-AMC peptide substrate; 30 min pre-incubation, 90 min reaction at room temperature; fluorescence.
T1 construct: Avi-tagged FL MALT-1 (Pharmaron, stored at −70° C.); Avi-tag; purchased Pharmaron
T1 sequence (Q9UDY8 1-824): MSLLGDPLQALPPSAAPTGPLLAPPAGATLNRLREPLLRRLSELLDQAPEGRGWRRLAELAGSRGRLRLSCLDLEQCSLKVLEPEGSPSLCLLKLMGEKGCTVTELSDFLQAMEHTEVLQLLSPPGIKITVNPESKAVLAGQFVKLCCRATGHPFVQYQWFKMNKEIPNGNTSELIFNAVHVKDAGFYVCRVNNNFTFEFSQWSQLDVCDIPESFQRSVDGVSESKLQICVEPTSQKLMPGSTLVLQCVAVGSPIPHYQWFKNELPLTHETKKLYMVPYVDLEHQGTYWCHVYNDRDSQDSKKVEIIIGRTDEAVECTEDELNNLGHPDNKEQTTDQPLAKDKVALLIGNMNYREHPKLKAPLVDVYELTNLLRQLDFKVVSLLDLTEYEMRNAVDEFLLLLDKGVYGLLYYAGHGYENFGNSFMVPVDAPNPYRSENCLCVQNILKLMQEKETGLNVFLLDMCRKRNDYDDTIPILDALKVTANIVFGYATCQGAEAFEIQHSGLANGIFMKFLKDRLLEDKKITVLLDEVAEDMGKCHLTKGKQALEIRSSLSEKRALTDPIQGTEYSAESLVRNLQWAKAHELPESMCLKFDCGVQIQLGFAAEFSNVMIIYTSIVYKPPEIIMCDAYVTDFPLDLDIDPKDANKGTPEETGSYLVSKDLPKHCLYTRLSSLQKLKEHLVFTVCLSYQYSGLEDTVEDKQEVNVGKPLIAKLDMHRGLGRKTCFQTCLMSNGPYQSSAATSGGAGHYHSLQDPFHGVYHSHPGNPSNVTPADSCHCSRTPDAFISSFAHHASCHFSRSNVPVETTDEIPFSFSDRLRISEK
Assay type: biochemical
Procedure, shortened: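 Full-length Avi-tagged enzyme preincubated 30 min at room temperature with compound (2% DMSO final) in HEPES pH 6.89 buffer with sodium citrate, TCEP, EDTA and CHAPS. Ac-LRSR-AMC substrate added at Km or 10×Km (working stocks 50 or […] μM); fluorescence (ex 342/em 441 nm) after 90 min; IC50 from sigmoidal fit.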

| SMILES | IC50 |
| --- | --- |
| Cn1cccc(-c2nsc(C(=O)Nc3cnc(-n4nccn4)c(C#N)c3)c2C(F)(F)F)c1=O [I-108] | 1 to 2.5 µM |
| N#Cc1cc(NC(=O)c2snc(C3CCOC3)c2C2CC2)cnc1-n1nccn1 (stereo not shown) [I-110] | 0.4 to 1 µM |
| CN1Cc2cc(NC(=O)c3snc(-c4ccccc4)c3C3CC3)cnc2C1=O [I-111] | > 2.5 µM |
| CC(=O)N1CCC(c2nsc(C(=O)Nc3cnc(-n4nccn4)c(C#N)c3)c2C2CC2)CC1 [I-121] | 1 to 2.5 µM |
| CN1CCC(c2nsc(C(=O)Nc3cnc(-n4nccn4)c(C#N)c3)c2C2CC2)CC1 [I-122] | > 2.5 µM |
| CC(C)c1nsc(C(=O)Nc2ccnc(C(F)(F)F)c2)c1C1CC1 [I-124] | 1 to 2.5 µM |
| CN(C)c1nsc(C(=O)Nc2ccnc(C(F)(F)F)c2)c1C1CC1 [I-125] | > 2.5 µM |
| Cn1nc2cccc(-c3nsc(C(=O)Nc4cnc(-n5nccn5)c(C#N)c4)c3C3CC3)c2n1 [I-126] | ≤ 0.4 µM |
| Cn1nnc2c(-c3nsc(C(=O)Nc4cnc(-n5nccn5)c(C#N)c4)c3C3CC3)cccc21 [I-127] | ≤ 0.4 µM |
| Cn1ccc(-c2nsc(C(=O)Nc3cnc(-n4nccn4)c(C#N)c3)c2C(F)(F)F)cc1=O [I-128, N-(5-cyano-6-(2H-1,2,3-triazol-2-yl)pyridin-3-yl)-3-(1-methyl-2-oxo-1,2-dihydropyridin-4-yl)-4-(trifluoromethyl)isothiazole-5-carboxamide] | > 2.5 µM |
| CC(=O)N1CC(c2nsc(C(=O)Nc3cnc(-n4nccn4)c(C#N)c3)c2C(F)(F)F)C1 [I-129, 3-(1-acetylazetidin-3-yl)-N-[5-cyano-6-(1,2,3-triazol-2-yl)pyridin-3-yl]-4-(trifluoromethyl)-1,2-thiazole-5-carboxamide] | > 2.5 µM |
| CN1CC(c2nsc(C(=O)Nc3cnc(-n4nccn4)c(C#N)c3)c2C(F)(F)F)C1 [I-130, N-[5-cyano-6-(1,2,3-triazol-2-yl)pyridin-3-yl]-3-(1-methylazetidin-3-yl)-4-(trifluoromethyl)-1,2-thiazole-5-carboxamide] | > 2.5 µM |
| N#Cc1cc(NC(=O)c2snc(-c3cccc4nccn34)c2C2CC2)cnc1-n1nccn1 [I-131, N-(5-cyano-6-(2H-1,2,3-triazol-2-yl)pyridin-3-yl)-4-cyclopropyl-3-(imidazo[1,2-a]pyridin-5-yl)isothiazole-5-carboxamide] | ≤ 0.4 µM |
| O=C(Nc1ccnc(C(F)(F)F)c1)c1snc(-c2cccc3nccn23)c1C1CC1 [I-132, 4-cyclopropyl-3-(imidazo[1,2-a]pyridin-5-yl)-N-(2-(trifluoromethyl)pyridin-4-yl)isothiazole-5-carboxamide] | ≤ 0.4 µM |
| O=C(Nc1ccc(C(=O)N2CC(O)C2)c(Cl)c1)c1snc(-c2cccc3ncccc23)c1C1CC1 [I-133, N-(3-chloro-4-(3-hydroxyazetidine-1-carbonyl)phenyl)-4-cyclopropyl-3-(quinolin-5-yl)isothiazole-5-carboxamide] | ≤ 0.4 µM |
| CN1CC=C(c2nsc(C(=O)Nc3cnc(-n4nccn4)c(C#N)c3)c2C2CC2)CC1 [I-134, N-(5-cyano-6-(2H-1,2,3-triazol-2-yl)pyridin-3-yl)-4-cyclopropyl-3-(1-methyl-1,2,3,6-tetrahydropyridin-4-yl)isothiazole-5-carboxamide] | > 2.5 µM |
| O=C(Nc1ccnc(C(F)(F)F)c1)c1snc(-c2ccccc2Cl)c1C1CC1 [I-135, 3-(2-chlorophenyl)-4-cyclopropyl-N-[2-(trifluoromethyl)pyridin-4-yl]-1,2-thiazole-5-carboxamide] | ≤ 0.4 µM |
| O=C(Nc1ccnc(C(F)(F)F)c1)c1snc(-c2ccc(Cl)cc2)c1C1CC1 [I-136, 3-(4-chlorophenyl)-4-cyclopropyl-N-[2-(trifluoromethyl)pyridin-4-yl]-1,2-thiazole-5-carboxamide] | ≤ 0.4 µM |
| O=C(Nc1ccnc(C(F)(F)F)c1)c1snc(-c2ccc(C(F)(F)F)cc2)c1C1CC1 [I-137, 4-cyclopropyl-3-[4-(trifluoromethyl)phenyl]-N-[2-(trifluoromethyl)pyridin-4-yl]-1,2-thiazole-5-carboxamide] | 0.4 to 1 µM |
| O=C(Nc1ccnc(C(F)(F)F)c1)c1snc(-c2cccc(C(F)(F)F)c2)c1C1CC1 [I-138, 4-cyclopropyl-3-(3-(trifluoromethyl)phenyl)-N-(2-(trifluoromethyl)pyridin-4-yl)isothiazole-5-carboxamide] | ≤ 0.4 µM |
| O=C(Nc1ccnc(C(F)(F)F)c1)c1snc(-c2cccc(Cl)c2)c1C1CC1 [I-139, 3-(3-chlorophenyl)-4-cyclopropyl-N-(2-(trifluoromethyl)pyridin-4-yl)isothiazole-5-carboxamide] | ≤ 0.4 µM |
| Cc1ccc(-c2nsc(C(=O)Nc3ccnc(C(F)(F)F)c3)c2C2CC2)c2cccnc12 [I-140, 4-cyclopropyl-3-(8-methylquinolin-5-yl)-N-[2-(trifluoromethyl)pyridin-4-yl]-1,2-thiazole-5-carboxamide] | ≤ 0.4 µM |
| CC(=O)Nc1cccc(-c2nsc(C(=O)Nc3ccnc(C(F)(F)F)c3)c2C2CC2)c1 [I-141, 4-cyclopropyl-3-(3-acetamidophenyl)-N-[2-(trifluoromethyl)pyridin-4-yl]-1,2-thiazole-5-carboxamide] | 0.4 to 1 µM |
| O=C(Nc1ccnc(C(F)(F)F)c1)c1snc(-c2ccc3scnc3c2)c1C1CC1 [I-142, 3-(1,3-benzothiazol-5-yl)-4-cyclopropyl-N-[2-(trifluoromethyl)pyridin-4-yl]-1,2-thiazole-5-carboxamide] | ≤ 0.4 µM |
| Cc1nn(C)cc1-c1nsc(C(=O)Nc2ccnc(C(F)(F)F)c2)c1C1CC1 [I-143, 4-cyclopropyl-3-(1,3-dimethyl-1H-pyrazol-4-yl)-N-(2-(trifluoromethyl)pyridin-4-yl)isothiazole-5-carboxamide] | ≤ 0.4 µM |
| O=C(Nc1ccnc(C(F)(F)F)c1)c1snc(-c2cncnc2)c1C1CC1 [I-144, 4-cyclopropyl-3-(pyrimidin-5-yl)-N-[2-(trifluoromethyl)pyridin-4-yl]-1,2-thiazole-5-carboxamide] | ≤ 0.4 µM |
| CN(C)c1ccc(-c2nsc(C(=O)Nc3ccnc(C(F)(F)F)c3)c2C2CC2)cc1 [I-145, 4-cyclopropyl-3-[4-(dimethylamino)phenyl]-N-[2-(trifluoromethyl)pyridine-4-yl]-1,2-thiazole-5-carboxamide] | > 2.5 µM |
| O=C(Nc1ccnc(C(F)(F)F)c1)c1snc(-c2cncc(F)c2)c1C1CC1 [I-146, 4-cyclopropyl-3-(5-fluoropyridin-3-yl)-N-[2-(trifluoromethyl)pyridine-4-yl]-1,2-thiazole-5-carboxamide] | ≤ 0.4 µM |
| O=C(Nc1ccnc(C(F)(F)F)c1)c1snc(-c2ccccc2F)c1C1CC1 [I-147, 4-cyclopropyl-3-(2-fluorophenyl)-N-[2-(trifluoromethyl)pyridine-4-yl]-1,2-thiazole-5-carboxamide] | ≤ 0.4 µM |
| CC(=O)Nc1ccc(-c2nsc(C(=O)Nc3ccnc(C(F)(F)F)c3)c2C2CC2)cc1 [I-148, 3-(4-acetamidophenyl)-4-cyclopropyl-N-(2-(trifluoromethyl)pyridin-4-yl)isothiazole-5-carboxamide] | 0.4 to 1 µM |

Now from value to compound:

| IC50 | SMILES |
| --- | --- |
| ≤ 0.4 µM | COc1nccc2c(-c3nsc(C(=O)Nc4cnc(-n5nccn5)c(Cl)c4)c3C(F)(F)F)cccc12 [I-106] |
| ≤ 0.4 µM | O=C(Nc1cnc(-n2nccn2)c(Cl)c1)c1snc(-c2cccc3c(=O)[nH]ccc23)c1C(F)(F)F [I-107] |
| ≤ 0.4 µM | N#Cc1cc(NC(=O)c2snc(-c3cccc4ncoc34)c2C2CC2)cnc1-n1nccn1 [I-109] |
| ≤ 0.4 µM | Cc1cccnc1-c1nsc(C(=O)Nc2cnc(-n3nccn3)c(C#N)c2)c1C1CC1 [I-112] |
| ≤ 0.4 µM | Cc1cc(NC(=O)c2snc(-c3cccc4ncoc34)c2C2CC2)cnc1-n1nccn1 [I-113] |
| ≤ 0.4 µM | N#Cc1cc(NC(=O)c2snc(-c3cccn4nccc34)c2C2CC2)cnc1-n1nccn1 [I-114] |
| ≤ 0.4 µM | N#Cc1cc(NC(=O)c2snc(C3CCOC3)c2C2CC2)cnc1-n1nccn1 (stereo not shown) [I-115] |
| ≤ 0.4 µM | Cc1cn(C)nc1-c1nsc(C(=O)Nc2cnc(-n3nccn3)c(C#N)c2)c1C1CC1 [I-116] |
| ≤ 0.4 µM | O=C(Nc1cnc(C(=O)N2CC(O)C2)c(Cl)c1)c1snc(-c2cccc3ncsc23)c1C1CC1 [I-117] |
| ≤ 0.4 µM | O=C(Nc1cnc(-n2nccn2)c(Cl)c1)c1snc(-c2cccc3ncccc23)c1C1CC1 [I-118] |
| ≤ 0.4 µM | O=C(Nc1cncc(C(F)(F)F)c1)c1snc(-c2cccc3ncccc23)c1C1CC1 [I-119] |
| ≤ 0.4 µM | Cn1nnc2cccc(-c3nsc(C(=O)Nc4cnc(-n5nccn5)c(C#N)c4)c3C3CC3)c21 [I-120] |
| ≤ 0.4 µM | N#Cc1cc(NC(=O)c2snc(-c3cccc4ncccc34)c2C2CC2)cnc1-n1nccn1 [I-123] |
